In ChEMBL document CHEMBL4017503, “Identification of a New Zinc Binding Chemotype by Fragment Screening” (J Med Chem, 2017):

Target: Carbonic anhydrase 2 (Homo sapiens, UniProt P00918)
Test: Binding affinity to human carbonic anhydrase 2 by surface plasmon resonance spectrometry
Work on `O=C1NC(=O)C(Cc2ccccc2)N1` (stereo not given) yielded a Kd of over 2000 µM. Work on `O=C1NC(=O)/C(=C/c2ccccc2)N1` yielded a Kd of over 2000 µM. In the case of `CN1C(=O)OC(C)(C)C1=O` [TRIMETHADIONE], the Kd is reported as over 2000 µM. Compound `CC1(C)OC(=O)NC1=O` [DIMETHADIONE] has a Kd of over 2000 µM. Work on `COc1ccc(/C=C2\SC(=O)NC2=O)c(OC)c1` yielded a Kd of over 2000 µM. `COc1ccc(/C=C2\NC(=S)NC2=O)c(OC)c1` showed a Kd of over 2000 µM. Compound `COc1ccc(CC2NC(=O)NC2=O)c(OC)c1` (stereo not given) has a Kd of over 2000 µM. `COc1ccc(/C=C2\NC(=O)NC2=O)c(OC)c1` gave a Kd of over 2000 µM. Compound `O=C1NC(=O)C(c2ccccc2)N1` (stereo not given) has a Kd of over 2000 µM.

System: not listed separately
Test: Dissociation constant, pKa of the compound
Type: physicochemical
With `O=C1NC(=O)C(c2ccccc2)O1` (stereo not given) [PEMOLINE DIONE] the pKa was 5.5.
